From patent US20230295234A1, “ANTIMICROBIAL PEPTIDOMIMETICS” (SPEXIS AG, priority 2020, published 2023)
Where two headings read alike, the source gives them in different places. Peptide text beside a SMILES is read from it.

Key:
[1] = test system: Escherichia coli ATCC 25922
Outline: (§1)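 Standardized inocula (0.5 McFarland in saline, then diluted in MHII broth to approximately 5×10^5 CFU/mL) were exposed to two-fold dilution series of each peptide in the presence of polysorbate 80 (0.002% final).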

[2] = test system: Klebsiella pneumoniae SSI3010
Outline: as §1

[3] = test system: Escherichia coli MCR-1 Af 45
Outline: as §1

[4] = test system: human red blood cells (hRBC); test: Hemolysis of human red blood cells; assay type: cell-based
Outline: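 Percent hemolysis is OD540 of peptide-treated supernatant relative to water-lysed cells. Each peptide was tested at 200 μg/mL against 20% (v/v) washed human erythrocytes. Incubation was 1 h at 37 °C, 300 rpm.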

[5] = Mueller-Hinton broth II, 18-20 hours at 35° C.

## CC[C@H](C)[C@H](NC(=O)[C@@H](NC(=O)[C@@H]1CCCN1C(=O)[C@@H](NC(=O)[C@@H]1C[C@@H](N)CN1C(=O)[C@H](CCCCN)NC(=O)[C@@H](N)CCCCN)C(C)C)[C@@H](C)CC)C(=O)N[C@@H](Cc1ccc(O)cc1)C(=O)N[C@H]1CC(=O)NCC[C@@H](C(=O)N[C@@H](CCN)C(=O)N[C@@H](CCCNC(=N)N)C(=O)N[C@@H](Cc2ccc(O)cc2)C(=O)O)NC(=O)[C@H](CCCCN)NC(=O)[C@@H](CCN)NC(=O)[C@H]([C@@H](C)O)NC(=O)[C@H](CCN)NC(=O)[C@H](CCCNC(=N)N)NC(=O)[C@H](CC(N)=O)NC1=O [Example 132] (HELM PEPTIDE1{K.K.[N[C@@H]1C[C@@H](C(=O)[*:2])N([*:1])C1].V.P.I.I.Y.D.N.R.[Dab].T.[NCC[C@@H](N[*:1])C(=O)[*:2]].K.[Dab].[Dab].R.Y}$PEPTIDE1,PEPTIDE1,9:R3-16:R3$$$V2.0)
[1]; ATCC 25922
  Escherichia coli ATCC 25922 MIC: 0.0625 mg/L
[2]; SSI3010
  Klebsiella pneumoniae SSI3010 MIC: 0.0625 mg/L
[3]; MCR-1 Af 45
  Escherichia coli MCR-1 Af 45 MIC: 0.0625 mg/L
[4]; red cells of human, 1 h
  Hemolysis at 0.2 g/L: 0%

## CC[C@H](C)[C@H](NC(=O)[C@@H](NC(=O)[C@@H]1CCCN1C(=O)[C@@H](NC(=O)[C@@H]1C[C@@H](N)CN1C(=O)[C@H](CCCCN)NC(=O)[C@@H](N)CCCCN)C(C)C)[C@@H](C)CC)C(=O)N[C@@H](Cc1ccc(O)cc1)C(=O)N[C@H]1CCC(=O)NCC[C@@H](C(=O)N[C@@H](CCN)C(=O)N[C@@H](CCCNC(=N)N)C(=O)N[C@@H](Cc2ccc(O)cc2)C(=O)O)NC(=O)[C@H](CCCCN)NC(=O)[C@@H](CCN)NC(=O)[C@H]([C@@H](C)O)NC(=O)[C@H](CCN)NC(=O)[C@H](CCCNC(=N)N)NC(=O)[C@H](CC(N)=O)NC1=O [Example 133] (HELM PEPTIDE1{K.K.[N[C@@H]1C[C@@H](C(=O)[*:2])N([*:1])C1].V.P.I.I.Y.E.N.R.[Dab].T.[NCC[C@@H](N[*:1])C(=O)[*:2]].K.[Dab].[Dab].R.Y}$PEPTIDE1,PEPTIDE1,9:R3-16:R3$$$V2.0)
[1]; ATCC 25922
  Escherichia coli ATCC 25922 MIC: 0.25 mg/L
[2]; SSI3010
  Klebsiella pneumoniae SSI3010 MIC: 0.25 mg/L
[3]; MCR-1 Af 45
  Escherichia coli MCR-1 Af 45 MIC: 0.25 mg/L
[4]; red cells of human, 1 h
  Hemolysis at 0.2 g/L: 0%

## CCCC[C@H](NC(=O)[C@H](CCCNC(=N)N)NC(=O)[C@H](CCN)NC(=O)[C@@H]1CSSC[C@H](NC(=O)[C@H](Cc2ccc(O)cc2)NC(=O)[C@@H](NC(=O)[C@@H](NC(=O)[C@@H]2CCCN2C(=O)[C@@H](N)C(C)C)[C@@H](C)CC)[C@@H](C)CC)C(=O)N[C@@H](CC(N)=O)C(=O)N[C@@H](CCCNC(=N)N)C(=O)N[C@@H](CCCNC(=N)N)C(=O)N[C@@H]([C@@H](C)O)C(=O)N[C@H](CCN)C(=O)N[C@@H](CCCCN)C(=O)N1)C(=O)O [Example 134] (HELM PEPTIDE1{V.P.I.I.Y.C.N.R.R.T.[NCC[C@@H](N[*:1])C(=O)[*:2]].K.C.[Dab].R.[Nle]}$PEPTIDE1,PEPTIDE1,6:R3-13:R3$$$V2.0)
[1]; ATCC 25922
  Escherichia coli ATCC 25922 MIC: 0.0625 mg/L
[2]; SSI3010
  Klebsiella pneumoniae SSI3010 MIC: 0.125 mg/L
[3]; [5]
  Escherichia coli MCR-1 Af 45 MIC: 0.0625 mg/L
[4]; red cells of human, 1 h
  Hemolysis at 0.2 g/L: 0%

## CCCC[C@H](NC(=O)[C@H](CCCNC(=N)N)NC(=O)[C@H](CCN)NC(=O)[C@@H]1CSSC(C)(C)[C@H](NC(=O)[C@H](Cc2ccc(O)cc2)NC(=O)[C@@H](NC(=O)[C@@H](NC(=O)[C@@H]2C[C@@H](N)CN2C(=O)[C@@H](N)C(C)C)[C@@H](C)CC)[C@@H](C)CC)C(=O)N[C@@H](CC(N)=O)C(=O)N[C@@H](CCCNC(=N)N)C(=O)N[C@@H](CCCNC(=N)N)C(=O)N[C@@H]([C@@H](C)O)C(=O)N[C@H](CCN)C(=O)N[C@@H](CCCCN)C(=O)N1)C(=O)O [Example 135] (HELM PEPTIDE1{V.[N[C@@H]1C[C@@H](C(=O)[*:2])N([*:1])C1].I.I.Y.[Pen].N.R.R.T.[NCC[C@@H](N[*:1])C(=O)[*:2]].K.C.[Dab].R.[Nle]}$PEPTIDE1,PEPTIDE1,6:R3-13:R3$$$V2.0)
[1]; [5]
  Escherichia coli ATCC 25922 MIC: 0.0625 mg/L
[2]; [5]
  Klebsiella pneumoniae SSI3010 MIC: 0.125 mg/L
[3]; [5]
  Escherichia coli MCR-1 Af 45 MIC: 0.0625 mg/L
[4]; 20% hRBC, 1 h at 37° C.
  Hemolysis at 0.2 g/L: 0%

## CCCC[C@H](NC(=O)[C@H](CCCNC(=N)N)NC(=O)[C@H](CCN)NC(=O)[C@@H]1CSSC(C)(C)[C@H](NC(=O)[C@H](Cc2ccc(O)cc2)NC(=O)[C@@H](NC(=O)[C@@H](NC(=O)[C@@H]2C[C@@H](N)CN2C(=O)[C@@H](N)C(C)C)[C@@H](C)CC)[C@@H](C)CC)C(=O)N[C@@H](CC(N)=O)C(=O)N[C@@H](CCCNC(=N)N)C(=O)N[C@@H](CCN)C(=O)N[C@@H]([C@@H](C)O)C(=O)N[C@H](CCN)C(=O)N[C@@H](CCCCN)C(=O)N1)C(=O)O [Example 136] (HELM PEPTIDE1{V.[N[C@@H]1C[C@@H](C(=O)[*:2])N([*:1])C1].I.I.Y.[Pen].N.R.[Dab].T.[NCC[C@@H](N[*:1])C(=O)[*:2]].K.C.[Dab].R.[Nle]}$PEPTIDE1,PEPTIDE1,6:R3-13:R3$$$V2.0)
[1]; ATCC 25922
  Escherichia coli ATCC 25922 MIC: 0.125 mg/L
[2]; SSI3010
  Klebsiella pneumoniae SSI3010 MIC: 0.125 mg/L
[3]; [5]
  Escherichia coli MCR-1 Af 45 MIC: 0.0625 mg/L
[4]; red cells of human, 1 h
  Hemolysis at 0.2 g/L: 0%

## CCCC[C@H](NC(=O)[C@H](CCCNC(=N)N)NC(=O)[C@H](CCN)NC(=O)[C@@H]1CSSC(C)(C)[C@H](NC(=O)[C@H](Cc2ccc(O)cc2)NC(=O)[C@@H](NC(=O)[C@@H](NC(=O)CN(CCN)C(=O)[C@@H](N)C(C)C)[C@@H](C)CC)[C@@H](C)CC)C(=O)N[C@@H](CC(N)=O)C(=O)N[C@@H](CCCNC(=N)N)C(=O)N[C@@H](CCN)C(=O)N[C@@H]([C@@H](C)O)C(=O)N[C@H](CCN)C(=O)N[C@@H](CCCCN)C(=O)N1)C(=O)O [Example 137] (HELM PEPTIDE1{V.[NCCN(CC(=O)[*:2])[*:1]].I.I.Y.[Pen].N.R.[Dab].T.[NCC[C@@H](N[*:1])C(=O)[*:2]].K.C.[Dab].R.[Nle]}$PEPTIDE1,PEPTIDE1,6:R3-13:R3$$$V2.0)
[1]; ATCC 25922
  Escherichia coli ATCC 25922 MIC: 0.125 mg/L
[2]; SSI3010
  Klebsiella pneumoniae SSI3010 MIC: 0.25 mg/L
[3]; [5]
  Escherichia coli MCR-1 Af 45 MIC: 0.0625 mg/L
[4]; red cells of human, 1 h
  Hemolysis at 0.2 g/L: 0%

## CCCC[C@H](NC(=O)[C@H](CCCNC(=N)N)NC(=O)[C@H](CCN)NC(=O)[C@@H]1CSSC(C)(C)[C@H](NC(=O)[C@H](Cc2ccc(O)cc2)NC(=O)[C@@H](NC(=O)[C@@H](NC(=O)[C@@H]2C[C@@H](N)CN2C(=O)[C@@H](N)C(C)C)[C@@H](C)CC)[C@@H](C)O)C(=O)N[C@@H](CC(N)=O)C(=O)N[C@@H](CCCNC(=N)N)C(=O)N[C@@H](CCN)C(=O)N[C@@H]([C@@H](C)O)C(=O)N[C@H](CCN)C(=O)N[C@@H](CCCCN)C(=O)N1)C(=O)O [Example 138] (HELM PEPTIDE1{V.[N[C@@H]1C[C@@H](C(=O)[*:2])N([*:1])C1].I.T.Y.[Pen].N.R.[Dab].T.[NCC[C@@H](N[*:1])C(=O)[*:2]].K.C.[Dab].R.[Nle]}$PEPTIDE1,PEPTIDE1,6:R3-13:R3$$$V2.0)
[1]; ATCC 25922
  Escherichia coli ATCC 25922 MIC: 0.125 mg/L
[2]; SSI3010
  Klebsiella pneumoniae SSI3010 MIC: 0.25 mg/L
[3]; [5]
  Escherichia coli MCR-1 Af 45 MIC: 0.0625 mg/L
[4]; red cells of human, 1 h
  Hemolysis at 0.2 g/L: 0%

## CC[C@H](C)[C@H](NC(=O)[C@@H](NC(=O)[C@@H]1CCCN1C(=O)[C@@H](N)C(C)C)[C@@H](C)CC)C(=O)N[C@@H](Cc1ccc(O)cc1)C(=O)N[C@H]1CSSC[C@@H](C(=O)N[C@@H](CCN)C(=O)N[C@@H](CCCNC(=N)N)C(=O)N[C@@H](CC2CCCCC2)C(=O)O)NC(=O)[C@H](CCCCN)NC(=O)[C@@H](CCN)NC(=O)[C@H]([C@@H](C)O)NC(=O)[C@H](CCN)NC(=O)[C@H](CCCNC(=N)N)NC(=O)[C@H](CC(N)=O)NC1=O [Example 139] (HELM PEPTIDE1{V.P.I.I.Y.C.N.R.[Dab].T.[NCC[C@@H](N[*:1])C(=O)[*:2]].K.C.[Dab].R.[Cha]}$PEPTIDE1,PEPTIDE1,6:R3-13:R3$$$V2.0)
[1]; ATCC 25922
  Escherichia coli ATCC 25922 MIC: 0.0625 mg/L
[2]; SSI3010
  Klebsiella pneumoniae SSI3010 MIC: 0.125 mg/L
[3]; [5]
  Escherichia coli MCR-1 Af 45 MIC: 0.0625 mg/L
[4]; red cells of human, 1 h
  Hemolysis at 0.2 g/L: 0%

## CC[C@H](C)[C@H](NC(=O)[C@@H](NC(=O)[C@@H]1CCCN1C(=O)[C@@H](N)C(C)C)[C@@H](C)CC)C(=O)N[C@@H](Cc1ccc(O)cc1)C(=O)N[C@@H]1C(=O)N[C@@H](CC(N)=O)C(=O)N[C@@H](CCCNC(=N)N)C(=O)N[C@@H](CCN)C(=O)N[C@@H]([C@@H](C)O)C(=O)N[C@H](CCN)C(=O)N[C@@H](CCCCN)C(=O)N[C@H](C(=O)N[C@@H](CCN)C(=O)N[C@@H](CCCNC(=N)N)C(=O)N[C@@H](Cc2ccc(O)cc2)C(=O)O)CSSC1(C)C [Example 140] (HELM PEPTIDE1{V.P.I.I.Y.[Pen].N.R.[Dab].T.[NCC[C@@H](N[*:1])C(=O)[*:2]].K.C.[Dab].R.Y}$PEPTIDE1,PEPTIDE1,6:R3-13:R3$$$V2.0)
[1]; [5]
  Escherichia coli ATCC 25922 MIC: 0.0625 mg/L
[2]; [5]
  Klebsiella pneumoniae SSI3010 MIC: 0.125 mg/L
[3]; [5]
  Escherichia coli MCR-1 Af 45 MIC: 0.0625 mg/L
[4]; 20% hRBC, 1 h at 37° C.
  Hemolysis at 0.2 g/L: 0%

## CC[C@H](C)[C@H](NC(=O)[C@@H](NC(=O)[C@@H]1CCCN1C(=O)[C@@H](N)C(C)C)[C@@H](C)CC)C(=O)N[C@@H](Cc1ccc(O)cc1)C(=O)N[C@H]1CSSC(C)(C)[C@@H](C(=O)N[C@@H](CCN)C(=O)N[C@@H](CCCNC(=N)N)C(=O)N[C@@H](Cc2ccc(O)cc2)C(=O)O)NC(=O)[C@H](CCCCN)NC(=O)[C@@H](CCN)NC(=O)[C@H]([C@@H](C)O)NC(=O)[C@H](CCN)NC(=O)[C@H](CCCNC(=N)N)NC(=O)[C@H](CC(N)=O)NC1=O [Example 141] (HELM PEPTIDE1{V.P.I.I.Y.C.N.R.[Dab].T.[NCC[C@@H](N[*:1])C(=O)[*:2]].K.[Pen].[Dab].R.Y}$PEPTIDE1,PEPTIDE1,6:R3-13:R3$$$V2.0)
[1]; ATCC 25922
  Escherichia coli ATCC 25922 MIC: 0.0625 mg/L
[2]; SSI3010
  Klebsiella pneumoniae SSI3010 MIC: 0.25 mg/L
[3]; [5]
  Escherichia coli MCR-1 Af 45 MIC: 0.0625 mg/L
[4]; red cells of human, 1 h
  Hemolysis at 0.2 g/L: 0%
